US20050096254A1, “Peptide deformylase activated prodrugs” (priority 2002, published 2005)
Values after ≈ are worked out from the molar mass of the structure shown.

How the values were obtained:
Assay type in all cases: cell-based
E. aerogenes = test: MIC susceptibility testing (modified NCCLS)
Method: (§1) The NCCLS (National Committee for Clinical Laboratory Standards), method to determine MIC's of antimicrobial compounds is modified for high-throughput screening. All stocks of tested compounds are prepared in either water or in DMSO depending on solubility. At the highest concentration, DMSO content should not exceed 0.5%. Briefly, twenty 2-fold serial dilutions of test compounds from the highest concentration is made in a 384-well microtiter plate. Each well is inoculated with testing bacteria in broth to a final concentration of approximately 1-1.5×10^6 cells/ml. Bacterial growth is determined by the increase of optical density at 600 nm using a microplate reader (Tecan SpectraFluor Plus).

E. cloacae = test: MIC susceptibility testing (modified NCCLS)
Method: as §1

E. faecalis = test: MIC susceptibility testing (modified NCCLS)
Method: as §1

H. influenzae = test: MIC susceptibility testing (modified NCCLS)
Method: as §1

K. pneumoniae = test: MIC susceptibility testing (modified NCCLS)
Method: as §1

S. aureus = test: MIC susceptibility testing (modified NCCLS)
Method: as §1

S. epidermidis = test: MIC susceptibility testing (modified NCCLS)
Method: as §1

E. coli/Tem-1 = test: MIC susceptibility testing (modified NCCLS); details: Table 4, E. coli expressing TEM-1 beta-lactamase
Method: as §1, with “Plus). The MIC is defined as the lowest concentration at which bacterial growth (equivalent to visible growth) was inhibited after 16 to 18 hours of incubation at the appropriate temperature required for the bacteria growth.” for “Plus).”
E. coli/TEM—E. coli expressing TEM-1 beta-lactamase; MRSA—Methicillin Resistant S. Aureus; MSSA—Methicillin Sensitive S. Aureus.

P. aeruginosa = test: MIC susceptibility testing (modified NCCLS)
Method: as §1, with “Each well is inoculated with testing bacteria in broth to a final concentration of approximately 1-1.5×10^6 cells/ml.” left out

Mammalian cells = test: Toxicity to mammalian cells; details: after 16 hours of exposure
Method: Mammalian cells were treated with Compound #2 as described above.

CSCC[C@H](NC=O)C(=O)N[C@@H](CC(C)C)C(=O)Oc1cc(Cl)ccc1Oc1ccc(Cl)cc1Cl [Compound #2]
MIC (E. aerogenes; Table 3, E. aerogenes ATCC 13048, Exp. #1): 1 µg/mL (≈ 1.78 µM)
MIC (E. aerogenes; Table 3, E. aerogenes ATCC 13048, Exp. #2): 1 µg/mL (≈ 1.78 µM)
MIC (E. aerogenes; Table 3, E. aerogenes ATCC 29009, Exp. #1): 0.25 µg/mL (≈ 0.445 µM)
MIC (E. aerogenes; Table 3, E. aerogenes ATCC 29009, Exp. #2): ≦0.125 μg/ml
MIC (E. aerogenes; Table 3, E. aerogenes ATCC 29751, Exp. #1): 2 µg/mL (≈ 3.56 µM)
MIC (E. aerogenes; Table 3, E. aerogenes ATCC 29751, Exp. #2): 1 µg/mL (≈ 1.78 µM)
MIC (E. aerogenes; Table 3, E. aerogenes ATCC 35028, Exp. #1): 4 µg/mL (≈ 7.12 µM)
MIC (E. aerogenes; Table 3, E. aerogenes ATCC 35028, Exp. #2): 2 µg/mL (≈ 3.56 µM)
MIC (E. aerogenes; Table 4, E. aerogenes ATCC 35028, Exp. #1): 32 µg/mL (≈ 56.9 µM)
MIC (E. aerogenes; Table 4, E. aerogenes ATCC 35028, Exp. #2): 16 µg/mL (≈ 28.5 µM)
MIC (E. cloacae; Table 3, E. cloacae ATCC 23355, Exp. #1): 0.5 µg/mL (≈ 0.89 µM)
MIC (E. cloacae; Table 3, E. cloacae ATCC 23355, Exp. #2): 0.5 µg/mL (≈ 0.89 µM)
MIC (E. cloacae; Table 4, E. cloacae ATCC 23355, Exp. #1): 16 µg/mL (≈ 28.5 µM)
MIC (E. cloacae; Table 4, E. cloacae ATCC 23355, Exp. #2): 1 µg/mL (≈ 1.78 µM)
MIC (E. faecalis; Table 4, E. faecalis ATCC 49757, Exp. #1): 64 µg/mL (≈ 114 µM)
MIC (E. faecalis; Table 4, E. faecalis ATCC 49757, Exp. #2): 32 µg/mL (≈ 56.9 µM)
MIC (E. faecalis; Table 4, E. faecalis ATCC 700802, Exp. #1): 32 µg/mL (≈ 56.9 µM)
MIC (E. faecalis; Table 4, E. faecalis ATCC 700802, Exp. #2): 32 µg/mL (≈ 56.9 µM)
MIC (H. influenzae; Table 4, H. influenzae ATCC 33533, Exp. #1): 64 µg/mL (≈ 114 µM)
MIC (H. influenzae; Table 4, H. influenzae ATCC 33533, Exp. #2): ≧64 μg/ml
MIC (K. pneumoniae; Table 3, K. pneumoniae ATCC 51503, Exp. #1): 8 µg/mL (≈ 14.2 µM)
MIC (K. pneumoniae; Table 3, K. pneumoniae ATCC 51503, Exp. #2): 8 µg/mL (≈ 14.2 µM)
MIC (K. pneumoniae; Table 3, K. pneumoniae ATCC 51504, Exp. #1): 1 µg/mL (≈ 1.78 µM)
MIC (K. pneumoniae; Table 3, K. pneumoniae ATCC 51504, Exp. #2): 2 µg/mL (≈ 3.56 µM)
MIC (K. pneumoniae; Table 3, K. pneumoniae ATCC 700721, Exp. #1): 2 µg/mL (≈ 3.56 µM)
MIC (K. pneumoniae; Table 3, K. pneumoniae ATCC 700721, Exp. #2): 2 µg/mL (≈ 3.56 µM)
MIC (K. pneumoniae; Table 4, K. pneumoniae ATCC 51503, Exp. #1): 4 µg/mL (≈ 7.12 µM)
MIC (K. pneumoniae; Table 4, K. pneumoniae ATCC 51503, Exp. #2): 8 µg/mL (≈ 14.2 µM)
MIC (K. pneumoniae; Table 4, K. pneumoniae ATCC 700721, Exp. #1): 4 µg/mL (≈ 7.12 µM)
MIC (K. pneumoniae; Table 4, K. pneumoniae ATCC 700721, Exp. #2): 8 µg/mL (≈ 14.2 µM)
MIC (S. aureus; Table 3, S. aureus ATCC 11632, Exp. #1): ≦0.125 μg/ml
MIC (S. aureus; Table 3, S. aureus ATCC 11632, Exp. #2): ≦0.125 μg/ml
MIC (S. aureus; Table 3, S. aureus ATCC 13301, Exp. #1): ≦0.125 μg/ml
MIC (S. aureus; Table 3, S. aureus ATCC 13301, Exp. #2): ≦0.125 μg/ml
MIC (S. aureus; Table 3, S. aureus ATCC 14154, Exp. #1): ≦0.125 μg/ml
MIC (S. aureus; Table 3, S. aureus ATCC 14154, Exp. #2): ≦0.125 μg/ml
MIC (S. aureus; Table 3, S. aureus ATCC 33591, Exp. #1): ≦0.125 μg/ml
MIC (S. aureus; Table 3, S. aureus ATCC 33591, Exp. #2): ≦0.125 μg/ml
MIC (S. aureus; Table 3, S. aureus ATCC 33592, Exp. #1): ≦0.125 μg/ml
MIC (S. aureus; Table 3, S. aureus ATCC 33592, Exp. #2): ≦0.125 μg/ml
MIC (S. aureus; Table 3, S. aureus ATCC 33593, Exp. #1): ≦0.125 μg/ml
MIC (S. aureus; Table 3, S. aureus ATCC 33593, Exp. #2): ≦0.125 μg/ml
MIC (S. aureus; Table 3, S. aureus ATCC 43300, Exp. #1): ≦0.125 μg/ml
MIC (S. aureus; Table 3, S. aureus ATCC 43300, Exp. #2): ≦0.125 μg/ml
MIC (S. aureus; Table 3, S. aureus ATCC 700260, Exp. #1): ≦0.125 μg/ml
MIC (S. aureus; Table 3, S. aureus ATCC 700260, Exp. #2): ≦0.125 μg/ml
MIC (S. aureus; Table 3, S. aureus ATCC 700698, Exp. #1): ≦0.125 μg/ml
MIC (S. aureus; Table 3, S. aureus ATCC 700698, Exp. #2): ≦0.125 μg/ml
MIC (S. aureus; Table 3, S. aureus ATCC 700699, Exp. #1): 16000 ng/mL (≈ 28.5 µM)
MIC (S. aureus; Table 3, S. aureus ATCC 700699, Exp. #2): 8000 ng/mL (≈ 14.2 µM)
MIC (S. aureus; Table 3, S. aureus ATCC 700787, Exp. #1): ≦0.125 μg/ml
MIC (S. aureus; Table 3, S. aureus ATCC 700787, Exp. #2): ≦0.125 μg/ml
MIC (S. aureus; Table 3, S. aureus ATCC 700788, Exp. #1): ≦0.125 μg/ml
MIC (S. aureus; Table 3, S. aureus ATCC 700788, Exp. #2): ≦0.125 μg/ml
MIC (S. aureus; Table 3, S. aureus ATCC 700789, Exp. #1): ≦0.125 μg/ml
MIC (S. aureus; Table 3, S. aureus ATCC 700789, Exp. #2): ≦0.125 μg/ml
MIC (S. aureus; Table 4, MRSA ATCC 700699, Exp. #1): 32000 ng/mL (≈ 56.9 µM)
MIC (S. aureus; Table 4, MRSA ATCC 700699, Exp. #2): 32000 ng/mL (≈ 56.9 µM)
MIC (S. aureus; Table 4, MSSA ATCC 11632, Exp. #1): 32000 ng/mL (≈ 56.9 µM)
MIC (S. aureus; Table 4, MSSA ATCC 11632, Exp. #2): 16000 ng/mL (≈ 28.5 µM)
MIC (S. aureus; Table 4, MSSA ATCC 33594, Exp. #1): ≦0.125 μg/ml
MIC (S. aureus; Table 4, MSSA ATCC 33594, Exp. #2): ≦0.125 μg/ml
MIC (S. aureus; Table 4, MSSA ATCC 700260, Exp. #1): ≦0.125 μg/ml
MIC (S. aureus; Table 4, MSSA ATCC 700260, Exp. #2): 4000 ng/mL (≈ 7.12 µM)
MIC (S. aureus; Table 5, MSSA ATCC 11632): 0.977 ng/mL (≈ 0.00174 µM)
MIC (S. aureus; Table 5, MSSA ATCC 13301): 0.015 ng/mL (≈ 2.67e-05 µM)
MIC (S. aureus; Table 5, MSSA ATCC 14154): 0.977 ng/mL (≈ 0.00174 µM)
MIC (S. aureus; Table 5, MSSA ATCC 33591): 15.63 ng/mL (≈ 0.0278 µM)
MIC (S. aureus; Table 5, MSSA ATCC 33592): 0.488 ng/mL (≈ 0.000868 µM)
MIC (S. aureus; Table 5, MSSA ATCC 33593): 0.488 ng/mL (≈ 0.000868 µM)
MIC (S. aureus; Table 5, MSSA ATCC 43300): 0.977 ng/mL (≈ 0.00174 µM)
MIC (S. aureus; Table 5, MSSA ATCC 700260): 0.031 ng/mL (≈ 5.52e-05 µM)
MIC (S. aureus; Table 5, MSSA ATCC 700698): 3.906 ng/mL (≈ 0.00695 µM)
MIC (S. aureus; Table 5, MSSA ATCC 700699): ≧4 μg/ml
MIC (S. aureus; Table 5, MSSA ATCC 700787): 7.813 ng/mL (≈ 0.0139 µM)
MIC (S. aureus; Table 5, MSSA ATCC 700788): 62.5 ng/mL (≈ 0.111 µM)
MIC (S. aureus; Table 5, MSSA ATCC 700789): 15.63 ng/mL (≈ 0.0278 µM)
MIC (S. epidermidis; Table 3, S. epidermidis ATCC 27626, Exp. #1): ≦0.125 μg/ml
MIC (S. epidermidis; Table 3, S. epidermidis ATCC 27626, Exp. #2): ≦0.125 μg/ml
MIC (S. epidermidis; Table 3, S. epidermidis ATCC 700565, Exp. #1): 2 µg/mL (≈ 3.56 µM)
MIC (S. epidermidis; Table 3, S. epidermidis ATCC 700565, Exp. #2): 2 µg/mL (≈ 3.56 µM)
MIC (S. epidermidis; Table 3, S. epidermidis ATCC 700566, Exp. #1): ≦0.125 μg/ml
MIC (S. epidermidis; Table 3, S. epidermidis ATCC 700566, Exp. #2): ≦0.125 μg/ml
MIC (S. epidermidis; Table 3, S. epidermidis ATCC 700578, Exp. #1): 0.5 µg/mL (≈ 0.89 µM)
MIC (S. epidermidis; Table 3, S. epidermidis ATCC 700578, Exp. #2): 0.25 µg/mL (≈ 0.445 µM)
MIC (S. epidermidis; Table 3, S. epidermidis ATCC 700583, Exp. #1): ≦0.125 μg/ml
MIC (S. epidermidis; Table 3, S. epidermidis ATCC 700583, Exp. #2): ≦0.125 μg/ml
MIC (E. coli/Tem-1; Exp. #1): 16 µg/mL (≈ 28.5 µM)
MIC (E. coli/Tem-1; Exp. #2): 16 µg/mL (≈ 28.5 µM)
MIC (P. aeruginosa; Table 4, P. aeruginosa ATCC 21726, Exp. #1): >64 µg/mL
MIC (P. aeruginosa; Table 4, P. aeruginosa ATCC 21726, Exp. #2): ≧64 μg/ml
MIC (P. aeruginosa; Table 4, P. aeruginosa ATCC 29872, Exp. #1): >64 µg/mL
MIC (P. aeruginosa; Table 4, P. aeruginosa ATCC 29872, Exp. #2): ≧64 μg/ml
IC50 (Mammalian cells): ~30 µM
